In patent US11590103B2, “Ascorbate in the prevention of statin induced vascular calcification” (priority 2019, dated 2023):

How the values were obtained:
Format in all cases: cell-based
[1] = system: human aortic smooth muscle cells (AoSMC); assay: Alkaline phosphatase activity assay in AoSMC; conditions: 300 mcM ascorbate, regular growth medium, FIG. 1
Experimental: AoSMC were plated in 96 well plates and grown to confluent layer. Cells were incubated with ascorbic acid in growth medium for three days. Cells were washed with phosphate buffered saline (PBS) and supplemented with 50 mcl/well 25 mcg/ml 4-MUP (fluorescent ALP substrate, Sigma) in alkaline buffer (Sigma)/1% Triton X100 for 1 h at room temperature. Fluorescence was measured at 360/450 nm.

[2] = system: human aortic smooth muscle cells (AoSMC); assay: Calcium accumulation in extracellular matrix of cultured AoSMC
Experimental: (§1) Cell viability was monitored with MTT assay.
AoSMC were seeded on fibronectin covered plastic plates at density 25,000 per square cm and grown to confluence for 5-7 days. […] J Cardiovasc Pharmacol 2008; 52:55-65. After four washes with PBS, ECM layers were solubilized by incubation in 0.6N HCl for 48 hours at 37° C. Calcium content in solubilized samples was measured with TECO Ca assay according to manufacturer's protocol.

[3] = system: human aortic smooth muscle cells (AoSMC); assay: Expression of osteoblast markers in AoSMC (immunoassay); conditions: 100 mcM ascorbic acid, medium with 5 mM beta-glycerophosphate and 25 mcM forskolin, FIG. 3
Experimental: as §1
(§2) For the experiments AoSMC, DF and hFOB cells were seeded in separate 96 well plastic plates at density 25,000 per square cm and grown to confluence for 5-7 days. Tested compounds were added to cells at indicated concentrations for 72 hours in DMEM supplemented with 2% FBS. Cell layers were washed three times with PBS and fixed with 3% formaldehyde in PBS at 4° C. for one hour. Fixed cell layers were washed four times with PBS and treated with 1% BSA/PBS for one hour at RT. Immunoassay for osteogenic markers was done by sequential incubation with primary monoclonal antibodies (R&D Systems) in 1% BSA/PBS for 2 hours followed by 1 hour incubation with secondary goat anti-mouse IgG antibodies labeled with horse radish peroxidase (HRP). Retained peroxidase activity was measured after the last washing cycle (three times with 0.1% BSA/PBS) using TMB peroxidase substrate reagent (Rockland). Optical density was read with plate reader (Molecular Devices) at 450 nm and expressed as percentage of control cell samples incubated in unsupplemented 2% FBS/DMEM. To ensure a direct comparison of osteogenic markers expression on different cell types all pcell covered plates were treated identical and simultaneously during immunoassay.

[4] = system: human dermal fibroblasts (DF); assay: Expression of osteoblast markers in dermal fibroblasts (immunoassay); conditions: 100 mcM ascorbic acid, medium with 5 mM beta-glycerophosphate and 25 mcM forskolin, FIG. 3
Experimental: as §1, §2

[5] = 100 mcM ascorbate concomitant with simvastatin, without forskolin, FIG. 2A

In the case of `O=C1O[C@H]([C@@H](O)CO)C(O)=C1O` [ascorbic acid, L-ascorbic acid], the “decrease of cellular alkaline phosphatase activity” value [1] is reported as 80%, the “decrease of calcium accumulation” value ([2]; 100 mcM ascorbate added to 1 mM mevastatin, with 25 mcM forskolin, FIG. 2B) is reported as 19% and the accumulated calcium [2, 5] is reported as 0.2 mcg/well. For the same compound, the “decrease of accumulated calcium” value [2, 5] was 54%, the “decrease of extracellular Ca accumulation by AoSMC” value ([2]; 300 mcM ascorbate, regular growth medium, FIG. 1) was 20% and the “expression of all tested osteogenic markers” value [3] was “significantly reduced”. For the same compound, the “expression of all tested osteogenic markers” value [4] was “significantly reduced”.

Compound `CC[C@H](C)C(=O)O[C@H]1CCC=C2C=C[C@H](C)[C@H](CC[C@@H]3C[C@@H](O)CC(=O)O3)[C@H]21` [mevastatin] has a calcium accumulation ([2]; 1 mM mevastatin, with 25 mcM forskolin, FIG. 2B, control 1.35 mcg/well) of 1.8 mcg/well.

For `CCC(C)(C)C(=O)O[C@H]1C[C@@H](C)C=C2C=C[C@H](C)[C@H](CC[C@@H]3C[C@@H](O)CC(=O)O3)[C@H]21` [simvastatin], the “increase of calcium accumulation in AoSMC layers” value ([2]; in the presence of simvastatin, without forskolin, FIG. 2A) was 23%.
